Measurements as given in paper PMC9894685, “Abscisic acid agonists suitable for optimizing plant water use” (Frontiers in Plant Science, 2023).

Legend:
RCAR11-ABI2 = system: T1, RCAR11-ABI2; experiment: In vitro phosphatase assay, ABI2 with RCAR11; type: biochemical, Arabidopsis thaliana; details: 100 nM ABI2, 200 nM RCAR11
T1 construct: 6xHis (N); made in house; host or cells: Escherichia coli BL21
Method: (§1) Expression, purification, and analysis of RCAR and PP2C proteins were performed essentially as described ([Ruschhaupt et al., 2019]). Briefly, the ABA receptors RCAR1, RACR8, and RCAR11 were expressed with an aminoterminal histidine tag using the pSEVA431_LII_6xHIS::RCAR1/RCAR8/RCAR11. ABA coreceptors were expressed as histidine-tagged fusions with the maltose-binding protein using the pSEVA431_LII_6xHIS::MBP::ABI2/HAB1. All constructs were transformed and expressed in Escherichia coli strain BL21 and purified to homogeneity according to supplier’s instruction (GE Healthcare, Chicago, USA). The receptor assay was performed with 100 nM PP2C and a two-fold molar excess of RCAR. Values are means ± SD of three replicates. […] The maximum inhibition was set to 100% in the figures. The phosphatase activity was measured using 4-methylumbelliferyl-phosphate as a substrate ([Meinhard and Grill, 2001]). The increase in fluorescence was recorded over 25 min with excitation and emission wavelengths at 360 and 460 nm, respectively, using a Synergy 2 plate reader (Bio-Tec, Winooski, USA).

RCAR1/PYL9-ABI2 = experiment: Yeast ABA signal pathway LUC reporter, RCAR1-ABI2; type: cell-based, Arabidopsis thaliana
Method: The yeast cultivation and the life luciferase assay were performed as described ([Ruschhaupt et al., 2019]). Briefly, the reporter yeast expressing an ABA-dependent luciferase gene (LUC) was transformed with different combinations of ABA signaling components as indicated. Golden gate cloning ([Binder et al., 2014]) was used to construct pYEAST_LII_5‐6_CEN_URA vector with TDH3 promoter and TDH1 terminator (tTDH1), pYEAST_LII_1‐2_CEN_LEU vector with GK1 promoter and tTDH1, and pYEAST_LII_3‐4_CEN_TRP with the GAL1 promoter (pGAL1) and tTDH1 to express RCARs, PP2Cs, and OST1 (SnRK2.6), respectively ([Ruschhaupt et al., 2019]). […]
Colonies of freshly transformed cells were inoculated in 0.5 mL supplemented synthetic dextrose (SD) medium and incubated at 30°C in a gyratory shaker (Thermoshake-THO500, Gerhardt, Königswinter, Germany) at 200 rpm for 16-18 h. […] Light emission of yeasts was detected in a HIDEX plate luminometer (HIDEX, Turku, Finland) after injection of 100 µL freshly prepared luciferin substrate (1 mM D-luciferin, Promega) provided in 100 mM citric acid, pH 3 ([Leskinen et al., 2003]) for 5 s and was corrected for background. The LUC activity was normalized to the cell density (OD600) measured in 96-well flat plates (Sarstedt, Nümbrecht, Germany). […]

RCAR1-ABI2 = molecular target: T2, RCAR1-ABI2 (Arabidopsis thaliana, UniProt O04719+Q84MC7); experiment: In vitro phosphatase assay, ABI2 with RCAR1; type: biochemical; details: for Statistical significance of RCAR1-mediated inhibition of ABI2 phosphatase activity vs ABA / Statistical significance of RCAR1-mediated inhibition of ABI2 phosphatase activity vs CCP1: Fig. 3B
T2 construct: 6xHis (N); made in house; host or cells: Escherichia coli BL21
T2 sequence (Q84MC7 1-187): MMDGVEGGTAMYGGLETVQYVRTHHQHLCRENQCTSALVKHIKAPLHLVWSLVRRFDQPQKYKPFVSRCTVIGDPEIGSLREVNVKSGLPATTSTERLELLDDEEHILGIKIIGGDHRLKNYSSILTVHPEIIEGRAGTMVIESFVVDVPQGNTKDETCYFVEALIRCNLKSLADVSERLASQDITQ
T2 sequence (O04719 1-423): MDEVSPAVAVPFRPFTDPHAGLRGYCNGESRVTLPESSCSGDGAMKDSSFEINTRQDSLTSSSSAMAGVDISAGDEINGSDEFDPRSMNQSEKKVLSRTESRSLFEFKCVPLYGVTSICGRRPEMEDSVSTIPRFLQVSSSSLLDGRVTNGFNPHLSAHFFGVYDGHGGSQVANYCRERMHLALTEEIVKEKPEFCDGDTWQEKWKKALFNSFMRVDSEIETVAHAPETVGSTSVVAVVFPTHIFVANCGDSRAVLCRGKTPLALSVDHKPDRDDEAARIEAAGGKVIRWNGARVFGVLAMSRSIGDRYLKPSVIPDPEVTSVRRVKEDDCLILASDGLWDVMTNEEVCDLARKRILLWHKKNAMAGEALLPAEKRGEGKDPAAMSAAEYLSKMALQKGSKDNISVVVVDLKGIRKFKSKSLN
Method: as §1

[1] = system: Arabidopsis aba2-1 protoplasts; experiment: Transient ABA response in Arabidopsis protoplasts (pRD29B::LUC, RCAR11 and ABI2 effectors); type: cell-based, Arabidopsis thaliana; details: aba2-1 protoplasts, 18 h ligand exposure
Method: Preparation of Arabidopsis protoplasts, transfection of the effector DNA, and analysis of LUC activity were performed as described ([Tischer et al., 2017]). In essence, 10^5 mesophyll protoplasts from leaves of the ABA deficient mutant aba2-1 ([Schwartz et al., 1997]) were transfected with 4 µg DNA of the pRD29B::LUC construct as an ABA-responsive reporter and 3 µg of p35S::GUS (β-glucuronidase reporter gene) expression cassette as an internal control for normalization. In addition, 3 µg p35S::RCAR11 or the empty vector with the same expression cassette were co-expressed with 0.1 µg p35S::ABI2 effector constructs ([Tischer et al., 2017]), and the ligand-dependent induction of ABA-responsive reporter expression were assessed after incubation at 22°C. The expression of LUC and GUS was determined 18 h after transfection and ligand administration.

Inhibition of ABI2 compared to ABA (RCAR11-ABI2): comparable to ABA | IC50 relative to ABA (fold higher) (RCAR1-ABI2; 100 nM ABI2 and 200 nM RCAR1): approximately 100 fold
SMILES: CCC(=C/C(=O)O)/C=C/C(O)(C(C)C)C1(C#N)CC1 (stereo not drawn) [CCP2]
Higher exogenous concentration required for reporter expression comparable to 1 µM ABA (RCAR1/PYL9-ABI2): > 30 x | Statistical significance of RCAR1-mediated inhibition of ABI2 phosphatase activity vs ABA (RCAR1-ABI2; 0.003 µM): ns (Otherwise, the difference is regarded as insignificant indicated as “ns”) | Statistical significance of RCAR1-mediated inhibition of ABI2 phosphatase activity vs CCP1 (RCAR1-ABI2; 0.003 µM): ns (Otherwise, the difference is regarded as insignificant indicated as “ns”) | Statistical significance of RCAR1-mediated inhibition of ABI2 phosphatase activity vs ABA (RCAR1-ABI2; 0.01 µM): ns (Otherwise, the difference is regarded as insignificant indicated as “ns”) | Statistical significance of RCAR1-mediated inhibition of ABI2 phosphatase activity vs CCP1 (RCAR1-ABI2; 0.01 µM): ns (Otherwise, the difference is regarded as insignificant indicated as “ns”) | Statistical significance of RCAR1-mediated inhibition of ABI2 phosphatase activity vs ABA (RCAR1-ABI2; 0.03 µM): s (P < 0.05 (one-way ANOVA) is considered as a significant difference and expressed as “s”) | Statistical significance of RCAR1-mediated inhibition of ABI2 phosphatase activity vs CCP1 (RCAR1-ABI2; 0.03 µM): ns (Otherwise, the difference is regarded as insignificant indicated as “ns”) | Statistical significance of RCAR1-mediated inhibition of ABI2 phosphatase activity vs ABA (RCAR1-ABI2; 0.1 µM): s (P < 0.05 (one-way ANOVA) is considered as a significant difference and expressed as “s”) | Statistical significance of RCAR1-mediated inhibition of ABI2 phosphatase activity vs CCP1 (RCAR1-ABI2; 0.1 µM): s (P < 0.05 (one-way ANOVA) is considered as a significant difference and expressed as “s”) | Statistical significance of RCAR1-mediated inhibition of ABI2 phosphatase activity vs ABA (RCAR1-ABI2; 0.3 µM): s (P < 0.05 (one-way ANOVA) is considered as a significant difference and expressed as “s”) | Statistical significance of RCAR1-mediated inhibition of ABI2 phosphatase activity vs CCP1 (RCAR1-ABI2; 0.3 µM): s (P < 0.05 (one-way ANOVA) is considered as a significant difference and expressed as “s”) | Statistical significance of RCAR1-mediated inhibition of ABI2 phosphatase activity vs ABA (RCAR1-ABI2; 1 µM): s (P < 0.05 (one-way ANOVA) is considered as a significant difference and expressed as “s”) | Statistical significance of RCAR1-mediated inhibition of ABI2 phosphatase activity vs CCP1 (RCAR1-ABI2; 1 µM): ns (Otherwise, the difference is regarded as insignificant indicated as “ns”) | Statistical significance of RCAR1-mediated inhibition of ABI2 phosphatase activity vs ABA (RCAR1-ABI2; 3 µM): s (P < 0.05 (one-way ANOVA) is considered as a significant difference and expressed as “s”) | Statistical significance of RCAR1-mediated inhibition of ABI2 phosphatase activity vs CCP1 (RCAR1-ABI2; 3 µM): ns (Otherwise, the difference is regarded as insignificant indicated as “ns”) | Statistical significance of RCAR1-mediated inhibition of ABI2 phosphatase activity vs ABA (RCAR1-ABI2; 10 µM): s (P < 0.05 (one-way ANOVA) is considered as a significant difference and expressed as “s”) | Statistical significance of RCAR1-mediated inhibition of ABI2 phosphatase activity vs CCP1 (RCAR1-ABI2; 10 µM): ns (Otherwise, the difference is regarded as insignificant indicated as “ns”) | Statistical significance of RCAR1-mediated inhibition of ABI2 phosphatase activity vs ABA (RCAR1-ABI2; 30 µM): s (P < 0.05 (one-way ANOVA) is considered as a significant difference and expressed as “s”) | Statistical significance of RCAR1-mediated inhibition of ABI2 phosphatase activity vs CCP1 (RCAR1-ABI2; 30 µM): ns (Otherwise, the difference is regarded as insignificant indicated as “ns”) | Statistical significance of RCAR1-mediated inhibition of ABI2 phosphatase activity vs ABA (RCAR1-ABI2; 100 µM): s (P < 0.05 (one-way ANOVA) is considered as a significant difference and expressed as “s”) | Statistical significance of RCAR1-mediated inhibition of ABI2 phosphatase activity vs CCP1 (RCAR1-ABI2; 100 µM): ns (Otherwise, the difference is regarded as insignificant indicated as “ns”) | Induction of ABA signaling compared to ABA [1]: ABA-like activity
